pEC50, pIC50: −log10 of the molar value.
Assays:
PI3K γ = target: T1, PI3K γ (Homo sapiens, UniProt P48736); assay: In vitro IC50, PI3K γ; type: biochemical
T1 construct: purchased Sigma
From the text: (§1) An exemplary system is PI 3-Kinase (human) HTRF™ Assay from Upstate.

PI3K α = target: T2, PI3K α (Homo sapiens, UniProt P42336); assay: In vitro IC50, PI3K α; type: biochemical
T2 construct: purchased Upstate
From the text: as §1

B cell = B cell proliferation; type: cell-based
PI3K δ = PI3K δ (Homo sapiens, UniProt O00329); assay: In vitro IC50, PI3K δ; type: biochemical; parameters: purchased Upstate
PI3K δ, sequence (O00329 whole entry): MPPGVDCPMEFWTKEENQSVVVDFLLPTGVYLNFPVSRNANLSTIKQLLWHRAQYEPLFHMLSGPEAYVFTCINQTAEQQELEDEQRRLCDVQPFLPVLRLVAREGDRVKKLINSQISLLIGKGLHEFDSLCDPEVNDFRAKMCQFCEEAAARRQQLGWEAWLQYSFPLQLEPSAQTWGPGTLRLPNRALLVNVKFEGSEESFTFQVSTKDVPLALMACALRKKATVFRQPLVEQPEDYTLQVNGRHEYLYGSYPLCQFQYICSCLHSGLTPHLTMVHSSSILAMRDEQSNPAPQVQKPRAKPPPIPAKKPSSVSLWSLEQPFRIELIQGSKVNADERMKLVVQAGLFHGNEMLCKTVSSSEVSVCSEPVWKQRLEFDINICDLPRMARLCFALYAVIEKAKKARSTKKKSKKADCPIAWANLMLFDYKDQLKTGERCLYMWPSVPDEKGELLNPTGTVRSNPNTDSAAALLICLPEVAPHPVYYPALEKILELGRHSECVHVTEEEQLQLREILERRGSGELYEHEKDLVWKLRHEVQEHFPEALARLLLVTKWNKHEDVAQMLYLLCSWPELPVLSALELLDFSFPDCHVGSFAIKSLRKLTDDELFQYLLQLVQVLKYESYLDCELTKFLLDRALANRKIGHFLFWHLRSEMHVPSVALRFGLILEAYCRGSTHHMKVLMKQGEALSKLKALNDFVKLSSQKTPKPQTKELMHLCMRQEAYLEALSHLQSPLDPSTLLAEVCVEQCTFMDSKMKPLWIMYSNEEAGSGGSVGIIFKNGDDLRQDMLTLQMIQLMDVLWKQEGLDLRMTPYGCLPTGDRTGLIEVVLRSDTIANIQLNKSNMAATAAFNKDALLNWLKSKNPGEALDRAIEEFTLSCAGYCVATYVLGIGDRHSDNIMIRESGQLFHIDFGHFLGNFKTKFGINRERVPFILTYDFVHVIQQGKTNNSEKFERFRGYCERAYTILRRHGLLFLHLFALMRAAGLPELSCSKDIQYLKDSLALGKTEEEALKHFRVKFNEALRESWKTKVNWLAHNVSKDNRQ
PI3K δ, sequence (P27986 whole entry partner): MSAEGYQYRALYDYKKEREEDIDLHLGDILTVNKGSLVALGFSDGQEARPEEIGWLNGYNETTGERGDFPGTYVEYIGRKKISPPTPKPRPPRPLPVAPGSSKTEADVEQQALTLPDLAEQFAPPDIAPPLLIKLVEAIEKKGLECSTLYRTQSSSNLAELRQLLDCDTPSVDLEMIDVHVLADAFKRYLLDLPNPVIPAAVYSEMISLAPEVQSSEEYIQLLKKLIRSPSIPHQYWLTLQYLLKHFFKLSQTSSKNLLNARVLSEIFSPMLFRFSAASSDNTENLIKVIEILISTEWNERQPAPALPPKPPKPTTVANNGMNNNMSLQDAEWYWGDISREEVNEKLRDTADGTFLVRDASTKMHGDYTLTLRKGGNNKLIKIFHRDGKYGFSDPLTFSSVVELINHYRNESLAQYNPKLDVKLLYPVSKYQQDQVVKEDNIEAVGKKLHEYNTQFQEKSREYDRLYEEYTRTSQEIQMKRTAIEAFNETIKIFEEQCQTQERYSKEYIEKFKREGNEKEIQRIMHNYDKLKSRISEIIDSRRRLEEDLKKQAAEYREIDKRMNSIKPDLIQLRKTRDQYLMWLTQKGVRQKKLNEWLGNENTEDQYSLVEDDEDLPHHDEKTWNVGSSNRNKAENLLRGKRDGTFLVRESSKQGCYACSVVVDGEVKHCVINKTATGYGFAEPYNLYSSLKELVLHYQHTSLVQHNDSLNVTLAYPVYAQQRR
From the text: as §1

PI3K β = PI3K β (Homo sapiens, UniProt P42338); assay: In vitro IC50, PI3K β; type: biochemical
PI3K β, sequence (P42338 whole entry): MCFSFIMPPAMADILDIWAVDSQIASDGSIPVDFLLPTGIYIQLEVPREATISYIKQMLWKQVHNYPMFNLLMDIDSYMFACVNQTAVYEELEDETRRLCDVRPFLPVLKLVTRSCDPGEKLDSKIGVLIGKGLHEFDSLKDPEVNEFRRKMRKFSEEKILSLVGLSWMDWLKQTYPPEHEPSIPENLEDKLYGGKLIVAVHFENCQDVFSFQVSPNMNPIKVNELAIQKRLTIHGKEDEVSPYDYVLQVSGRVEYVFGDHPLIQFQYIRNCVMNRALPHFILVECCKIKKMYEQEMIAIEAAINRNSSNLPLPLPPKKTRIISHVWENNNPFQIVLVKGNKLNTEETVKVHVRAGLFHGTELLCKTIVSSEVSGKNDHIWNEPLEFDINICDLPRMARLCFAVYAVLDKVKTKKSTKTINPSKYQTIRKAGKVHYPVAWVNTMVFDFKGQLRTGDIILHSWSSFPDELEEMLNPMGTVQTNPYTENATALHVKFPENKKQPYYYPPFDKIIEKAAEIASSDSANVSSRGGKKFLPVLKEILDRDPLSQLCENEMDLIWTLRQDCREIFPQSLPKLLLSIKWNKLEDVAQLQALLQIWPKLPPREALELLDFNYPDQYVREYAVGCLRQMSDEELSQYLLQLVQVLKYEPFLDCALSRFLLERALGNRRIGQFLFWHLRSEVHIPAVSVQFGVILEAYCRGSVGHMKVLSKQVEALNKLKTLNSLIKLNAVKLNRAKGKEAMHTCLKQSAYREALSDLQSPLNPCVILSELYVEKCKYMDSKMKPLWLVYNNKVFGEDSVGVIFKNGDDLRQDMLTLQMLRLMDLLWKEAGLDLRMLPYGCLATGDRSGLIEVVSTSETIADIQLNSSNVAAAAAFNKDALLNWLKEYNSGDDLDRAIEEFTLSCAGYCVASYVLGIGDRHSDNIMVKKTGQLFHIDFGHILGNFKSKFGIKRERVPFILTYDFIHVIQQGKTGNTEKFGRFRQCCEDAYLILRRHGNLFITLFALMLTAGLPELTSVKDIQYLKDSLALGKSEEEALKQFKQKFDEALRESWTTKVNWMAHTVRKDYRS
From the text: as §1

T2 sequence (P42336 whole entry): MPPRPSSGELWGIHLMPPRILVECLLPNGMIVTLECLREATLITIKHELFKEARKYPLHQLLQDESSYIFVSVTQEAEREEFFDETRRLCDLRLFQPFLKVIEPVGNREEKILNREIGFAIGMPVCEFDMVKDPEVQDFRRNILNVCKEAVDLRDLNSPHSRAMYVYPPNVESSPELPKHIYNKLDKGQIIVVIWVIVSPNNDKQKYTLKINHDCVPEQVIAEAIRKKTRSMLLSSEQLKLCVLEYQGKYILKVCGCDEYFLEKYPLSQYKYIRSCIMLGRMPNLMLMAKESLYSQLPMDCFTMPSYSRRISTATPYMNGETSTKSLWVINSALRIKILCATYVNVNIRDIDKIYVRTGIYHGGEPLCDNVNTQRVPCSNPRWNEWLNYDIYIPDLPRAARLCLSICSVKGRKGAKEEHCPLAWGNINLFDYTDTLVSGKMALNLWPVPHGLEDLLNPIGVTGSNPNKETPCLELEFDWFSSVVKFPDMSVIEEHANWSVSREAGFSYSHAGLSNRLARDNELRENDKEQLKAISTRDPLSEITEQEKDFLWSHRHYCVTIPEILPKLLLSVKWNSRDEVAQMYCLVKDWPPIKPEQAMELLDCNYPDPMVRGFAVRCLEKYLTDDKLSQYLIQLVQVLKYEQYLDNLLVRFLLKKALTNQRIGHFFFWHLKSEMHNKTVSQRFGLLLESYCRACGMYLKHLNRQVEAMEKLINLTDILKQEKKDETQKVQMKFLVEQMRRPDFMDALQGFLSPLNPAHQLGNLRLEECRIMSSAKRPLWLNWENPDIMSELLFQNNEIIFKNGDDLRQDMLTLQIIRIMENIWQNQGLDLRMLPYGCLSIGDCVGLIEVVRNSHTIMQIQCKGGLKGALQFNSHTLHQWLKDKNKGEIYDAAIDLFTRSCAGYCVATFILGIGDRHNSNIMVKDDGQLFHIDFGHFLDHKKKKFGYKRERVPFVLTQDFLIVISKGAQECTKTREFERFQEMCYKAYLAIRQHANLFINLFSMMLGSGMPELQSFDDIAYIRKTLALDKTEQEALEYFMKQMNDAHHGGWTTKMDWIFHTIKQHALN
T2 sequence (P27986 whole entry partner): as the sequence (P27986 whole entry partner) above
T1 sequence (P48736 whole entry): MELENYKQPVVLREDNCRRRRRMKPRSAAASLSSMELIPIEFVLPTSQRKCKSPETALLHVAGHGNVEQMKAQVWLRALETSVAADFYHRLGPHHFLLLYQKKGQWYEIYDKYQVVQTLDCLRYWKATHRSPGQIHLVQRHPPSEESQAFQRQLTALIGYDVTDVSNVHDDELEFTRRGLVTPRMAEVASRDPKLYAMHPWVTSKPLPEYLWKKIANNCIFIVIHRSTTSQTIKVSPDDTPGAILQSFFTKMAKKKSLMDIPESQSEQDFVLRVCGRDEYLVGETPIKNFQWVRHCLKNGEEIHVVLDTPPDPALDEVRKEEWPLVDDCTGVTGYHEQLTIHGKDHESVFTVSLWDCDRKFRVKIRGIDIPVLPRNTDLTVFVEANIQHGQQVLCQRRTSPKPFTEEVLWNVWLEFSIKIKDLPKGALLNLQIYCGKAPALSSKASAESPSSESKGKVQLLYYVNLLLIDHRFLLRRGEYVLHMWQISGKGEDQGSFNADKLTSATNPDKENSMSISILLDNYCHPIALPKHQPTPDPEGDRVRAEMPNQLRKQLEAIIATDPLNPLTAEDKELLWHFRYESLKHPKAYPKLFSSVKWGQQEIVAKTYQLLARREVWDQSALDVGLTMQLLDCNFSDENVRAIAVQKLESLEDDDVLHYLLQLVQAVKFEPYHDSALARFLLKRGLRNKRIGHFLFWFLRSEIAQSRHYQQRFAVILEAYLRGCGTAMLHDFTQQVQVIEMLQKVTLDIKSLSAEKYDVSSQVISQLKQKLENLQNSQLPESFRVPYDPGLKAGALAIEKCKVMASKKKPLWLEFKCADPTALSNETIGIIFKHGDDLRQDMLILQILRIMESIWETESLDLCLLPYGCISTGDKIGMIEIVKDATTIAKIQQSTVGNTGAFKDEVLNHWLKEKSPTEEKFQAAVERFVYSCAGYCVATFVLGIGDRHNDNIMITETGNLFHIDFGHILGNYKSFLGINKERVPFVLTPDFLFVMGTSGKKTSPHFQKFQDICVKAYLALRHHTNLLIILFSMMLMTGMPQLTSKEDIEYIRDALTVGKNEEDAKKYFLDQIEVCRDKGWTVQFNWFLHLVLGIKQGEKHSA

pIC50 (PI3K γ)	pIC50 (PI3K α)	pIC50 (PI3K δ)	pIC50 (PI3K β)	Structure (SMILES)	pEC50 (B cell)
> 7.00	< 5.00	> 7.00	–	Cc1ccccc1-n1c(Cn2nc(I)c3c(N)ncnc32)cc2cccc(C)c2c1=O [Compound 6]	> 7.00
> 7.00	< 5.00	> 7.00	< 5.00	CC(=O)Nc1nc2ccc(-c3nn(Cc4cc5cccc(C)c5c(=O)n4-c4ccccc4C)c4ncnc(N)c34)cc2o1 [Compound 266]	–
> 5.00	< 5.00	> 6.00	< 5.00	Cc1cccc2cc(Cn3nc(-c4ccn[nH]4)c4c(N)ncnc43)n(-c3ccccc3F)c(=O)c12 [Compound 183]	–
> 6.00	< 5.00	> 7.00	< 5.00	Cc1ccccc1-n1c(Cn2nc(C#CCO)c3c(N)ncnc32)cc2cccc(C)c2c1=O [Compound 11]	–
